Measurements published in patent US20090286862A1, “Therapeutic agent for psychoneurotic disease” (ONO PHARMACEUTICAL CO., LTD., priority 2004, published 2009).
Counter-ions that a name gives are not always drawn.

Assays:
Format in all cases: in vivo
[1] = test system: corticosterone elevation evoked by administration of sulprostone; experiment: Inhibitory activity for corticosterone elevation evoked by administration of sulprostone; conditions: Male CD (SD) IGS rat; 10 mg/kg orally 1 hour before sulprostone 0.3 mg/kg subcutaneously; blood 1 hour after
Procedure: Inhibitory Activity for Corticosterone Elevation Evoked by Administration of Sulprostone
Male CD (SD) IGS rat were orally administrated EP3 antagonist [compound (I), compound (II) and compound (III) (respectively, 10 mg/5 mL/kg (0.5% methylcellulose suspension))], the control group were orally administrated 0.5% methylcellulose suspension (5 mL/kg). After being administered for an hour, all groups were administered sulprostone subcutaneously (0.3 mg/4 mL/kg). In contrast, non-evoked group were orally administrated 0.5% methylcellulose suspension (5 mL/kg), and after being administered for an hour, administered physiological saline subcutaneously (4 mL/kg). After 1 hour from subcutaneous administration, rats of all groups were collected blood. The withdrawn blood was added EDTA and aprotinin, centrifuged (12,000 rpm, 3 minutes), and measured the corticosterone concentration in the supernatant by using the method of EIA (Bachem Inc.) or ELISA (Endocrine Technologies Inc.).

[2] = test system: olfactory bulbectomy rat; experiment: Score of emotional responses in olfactory bulbectomy rat (antidepressant effect); conditions: for score of emotional responses: seventh day, Male Wistar olfactory bulbectomy rat, 10 mg/kg orally twice a day for 7 days, control group 20.1±0.7, sham 3.7±3.4
Text: (§1) Antidepressant Effect and Antianxiety Effect for Olfactory Bulbectomy Rat
(§2) Male Wistar rat was anesthetized by injection of pentobarbital sodium, and fixed the head on a brain positioner. Either side of the bulbus olfactorius region of the head was drilled a hole with dental drill after the scalp incision. The either side of the bulbus olfactorius was aspirated and removed with an aspirator and then, the head was stitched up the scalp. The rat was defined as an olfactory bulbectomy animal. Alternatively, a sham surgery animal was anesthetized, fixed the brain, incised the scalp as well as the olfactory bulbectomy animal. The either side of the bulbus olfactorius region of the head was drilled a hole, and the either side of the bulbus olfactorius was not aspirated and removed and then, the head was stitched up the scalp. The olfactory bulbectomy animals were bred with isolated alone. In contrast, the sham surgery animals were not bred with isolated alone.
The olfactory bulbectomy animals were orally administered each the compound (I) of the present invention (10 mg/kg), the compound as positive control (desipramine hydrochloride (10 mg/kg); Wako Pure Chemical Industries, Ltd.), and control (0.5% methylcellulose suspension (5 mL/kg)) twice a day for 7 days. At that time, reactivity of emotional responses for 10 minutes for the first dosage one hour later of the first day and the seventh day was marked in accordance with an evaluation standard based on Gomi's method (Gomitami, other four people, Japanese pharmacologic magazine, 1983, Vol. 82, p 267-292).

[3] = test system: olfactory bulbectomy rat; experiment: Elevated plus-maze in olfactory bulbectomy rat (antianxiety effect); conditions: for antianxiety effect: elevated plus-maze
Text: as §1, §2
Furthermore, each the olfactory bulbectomy animals and the sham surgery animals administered the compound (I) of the present invention, desipramine hydrochloride or control were located the center of platform toward the open arms on the elevated plus-maze for 10 minutes for the first dosage one hour later of the eighth day, and it was measured within a 5 minutes period. Each the time (second) in the open arms and the close arms were measured with video-imaging behavioral analysis equipment.

Structure (SMILES): Cc1cc(C)cc([C@@H](CC(C)C)NC(=O)c2cc(COc3cc(F)ccc3F)ccc2CCC(=O)O)c1 [compound (II), 3-(2-(((1R)-3-methyl-1-(3,5-dimethylphenyl)butyl)carbamoyl)-4-(2,5-difluorophenoxymethyl)phenyl)propanoic acid]
- corticosterone elevation (corticosterone concentration in blood) [1]: inhibited
- antidepressant effect ([2]; olfactory bulbectomy rat): equivalent effect
- antianxiety effect [3]: equivalent effect

Structure (SMILES): Cc1cc(C)cc([C@@H](CC(C)C)NC(=O)c2cc(COc3cc(C)ccc3C)ccc2CCC(=O)O)c1 [compound (III), 3-(2-(((1R)-3-methyl-1-(3,5-dimethylphenyl)butyl)carbamoyl)-4-(2,5-dimethylphenoxymethyl)phenyl)propanoic acid]
- corticosterone elevation (corticosterone concentration in blood) [1]: inhibited
- antidepressant effect ([2]; olfactory bulbectomy rat): equivalent effect
- antianxiety effect [3]: equivalent effect

Structure (SMILES): CNCCCN1c2ccccc2CCc2ccccc21 [desipramine hydrochloride, reference compound]
- effective daily dosage in olfactory bulbectomy rat ([2]; olfactory bulbectomy rat, oral): 20 mg/kg per day
- score of emotional responses [2]: 7.5±3.4

Structure (SMILES): Cc1cc(C)cc([C@@H](CC(C)C)NC(=O)c2cc(COc3cc(F)ccc3C)ccc2CCC(=O)O)c1 [compound (I), 3-(2-((((1R)-1-(3,5-dimethylphenyl)-3-methylbutyl)amino)carbonyl)-4-(5-fluoro-2-methylphenoxymethyl)phenyl)propanoic acid]
- corticosterone elevation (corticosterone concentration in blood) [1]: inhibited
- antidepressant effect ([2]; olfactory bulbectomy rat): has antidepressant effect
- score of emotional responses (in words) ([2]; olfactory bulbectomy rat, 10 mg/kg orally twice a day, FIG. 2): decreased significantly
- score of emotional responses [2]: 6.2±4.6
- time in the open arms on the elevated plus-maze ([3]; eighth day, 1 hour after first dosage, 5 minutes period, FIG. 3): improved significantly
- antianxiety effect [3]: has antianxiety effect
